The term IC50 denotes the point on the concentration scale where inhibition reaches its midpoint.

Experimental findings from patent US8629164B2, “Inhibitors of NF-κB” (Profectus Biosciences, Inc., priority 2009, dated 2014) are described below.

For one data set, the target named is T1, p50 (Homo sapiens, UniProt P19838).
T1 sequence (P19838 1-433 limits assumed): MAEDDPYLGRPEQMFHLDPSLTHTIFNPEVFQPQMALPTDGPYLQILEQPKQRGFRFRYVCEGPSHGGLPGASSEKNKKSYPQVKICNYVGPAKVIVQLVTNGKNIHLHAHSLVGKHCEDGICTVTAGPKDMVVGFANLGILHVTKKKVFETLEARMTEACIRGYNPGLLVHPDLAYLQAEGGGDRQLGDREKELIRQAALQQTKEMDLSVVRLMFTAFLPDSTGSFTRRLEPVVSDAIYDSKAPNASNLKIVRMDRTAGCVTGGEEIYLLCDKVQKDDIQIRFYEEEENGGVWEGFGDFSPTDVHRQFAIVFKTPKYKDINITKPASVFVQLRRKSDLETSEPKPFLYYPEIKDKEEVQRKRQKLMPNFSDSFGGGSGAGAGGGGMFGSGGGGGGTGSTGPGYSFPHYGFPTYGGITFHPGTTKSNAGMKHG
Nature of the data set: TransAM NF-κB Family DNA Binding ELISA, p50. The settings on record: p50 binding IC50 (uM), cells without % sign. In general terms: An ELISA detects its analyte on a solid surface through an enzyme-linked reagent.

For another data set, the system named is COX-2 expression. Nature of the data set: LPS-induced COX-2 expression in RAW264.7 cells. The format is cell-based, mouse. The settings on record: pretreatment, at 6 to 12 h. The text has this: LPS stimulation induces the expression of COX-2 the enzyme responsible for prostaglandin E2.
In the next data set the test system is soluble IL-2Rα. Description: Soluble IL-2Rα expression in PHA-P activated hPBMCs. The format is cell-based, human. The following applies: 10 μM, three days. As to the method:
The graph is the mean of 2 independent experiments.
Soluble IL-2Rα is transcriptionally regulated by NF-κB. […] Human PBMCs were treated with 0, 0.2, 1, 10, 20 and 40 μM of the compound of Example 1 concurrent with PHA-P activation. The cells were cultured for an additional three days and media was harvested for marker assessment.

Data set [1] deals with IL-6 secretion from MDA-MB-231 cells. Nature of the data set: IL-6 secretion from MDA-MB-231 cells. The format is cell-based. As for the experimental part:
(§1) Specifically, A and B show the effects of the compound of Example 1 on IL-6 and IL-8 secretion from MDA-MB-231 cells stimulated by 20 ng/mL TNF-α. The cells were treated with the indicated concentrations of the compound of Example 1 for 2 hours, and then TNF-α was added and incubation continued for 4 hours.

The test system of data set [2] is human peripheral blood mononuclear cells (hPBMCs). Description: Cytotoxicity to hPBMCs (CellTiter-Glo). The format is cell-based. As for the experimental part: Human peripheral blood mononuclear cells (hPBMCs) were treated with example 1 or DHMEQ and the percentage of viable cells was assessed 24 hours post drug treatment. The graph represents the mean±the standard deviation of three replicate experiments.
The cytotoxicity profile of the compound of Example 1. The cytotoxicity of the compound of Example 1 was determined for human peripheral blood mononuclear cells (hPBMCs). As with the activity assay, the hPBMCs were treated with 0, 0.2, 1, 10, 20 and 40 μM of the compound of Example 1 for 2 hours, and then induced with 20 ng/ml TNF-α for 48 hours. The number of viable cells was determined using CellTiter-Glo luminescent cell viability assay (Promega (cat #G7573)). […] The selectivity index (the ratio of cytotoxicity CC50 to inhibitory IC50) is assigned to the compound of Example 1.
In general terms: ATP-based viability assays read luminescence as a measure of living cells.

Data set [3] has as its system IL-8 secretion from MDA-MB-231 cells. Nature of the data set: IL-8 secretion from MDA-MB-231 cells. The format is cell-based. As for the experimental part: as §1
Data set [4] relates to NF-κB. Description: 293-cell pTRH1-NF-κB-dscGFP reporter assay, TNF-α induced. The format is cell-based. The following applies: for EC50: Homo sapiens, HEK293, HEK293 cells, NF-κB driven GFP expression, read-out: NF-kB/293/GFP EC50. The essentials:
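HEK293 cells with stably integrated NF-κB reporters, pNF-κB-luc (3 elements) or pTRH1-NF-κB-dscGFP (4 elements). Cells pretreated 2 h with 0–40 μM compound, then stimulated with 20 ng/ml TNF-α for 18 h; luminescence or fluorescence read. Activity referenced to 0.5% DMSO control; median of three independent experiments.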
A general note: A reporter such as luciferase makes a cellular process visible.

Data set [5] concerns human RPMI8226 multiple myeloma. Description: RPMI8226 multiple myeloma xenograft in mice. The format is in vivo. As for the experimental part: Neither PS-341 (1 mg/kg iv days 1, 4/week×4 weeks) nor the compound of Example 2 (15 mg/kg ip QD×21) treatment achieved statistical significant tumor growth inhibition in this study as compared to vehicle treatment (P>0.10).
Several compounds have been assessed for efficacy studies in rodent disease models. We first sought to obtain in vivo efficacy of the compounds in multiple myeloma which has high incidence of constitutive activation of both the canonical and non-canonical pathways.

For data set [6], the system named is mouse embryonic fibroblasts (MEFs).
Data set [7] concerns MDA-MB-231 breast cancer cells. Description: Cytotoxicity and radio-sensitization in MDA-MB-231 breast cancer cells. The format is cell-based.
Data set [8] relates to NF-κB. Description: NF-κB DNA binding activity of p65+/+ MEF nuclear extract after IR. The following applies: p65+/+ MEFs.
Data set [9] has as its system NF-κB. Nature of the data set: NF-κB-dependent luciferase expression after IR in p65+/+ MEFs. The settings on record: 10 Gy IR.
The subject of data set [10] is collagen-induced arthritis. Nature of the data set: Mouse model of collagen-induced rheumatoid arthritis (CIA).
Setting [11] is: 20 μM, TNF-α 20 ng/mL, MDA-MB-231.

“Also recorded” adds a separate entry of the source.

Turning to `O=C(NC1=CC(=O)C2OC2C1O)c1cccnc1O` (racemic) [Example 1, (±)-2-hydroxy-N-(2-hydroxy-5-oxo-7-oxabicyclo[4.1.0]hept-3-en-3-yl)nicotinamide], the IC50 is 26 µM on p50 and 6.2 ± 0.5 µM with NF-κB [4] (2 hours pre-treatment, 20 ng/ml TNF-α 18 hours, median of three experiments ± standard error, read-out: median IC50, expression of the Green fluorescent protein gene). Further, the “LPS-induced COX-2 expression” value in the data set on COX-2 expression is reported as “strong inhibition”. Also, the “effect on sIL-2Rα” value in the data set on soluble IL-2Rα was “statistically significant affect”. Also, the “IL-6 secretion, TNF-α stimulated” value in data set [1] (setting [11]) is “completely inhibited”. Further, the “inhibition of constitutive IL-6 secretion” value in data set [1] (MDA-MB-231, unstimulated) is on record as “dose-dependent manner”. For the same compound, in data set [2], the “selectivity (cytotoxicity CC50 to inhibitory IC50) compared to DHMEQ” value is recorded as “greater selectivity”. The “cytotoxicity to hPBMCs” value in data set [2] (up to 40 μM tested) was “little detectable toxicity; also recorded: little cytotoxic effect”. Also, the “IL-8 secretion, TNF-α stimulated” value in data set [3] (setting [11]) is “completely inhibited”. Also, the “inhibition of constitutive IL-8 secretion” value in data set [3] (MDA-MB-231, unstimulated) is “dose-dependent manner”. In addition, the EC50 with NF-κB [4] was determined as 6.2 µM.

In the case of `O=C(NC1=CC(=O)C2OC2C1O)c1cc2ccccc2nc1O` (racemic) [Example 2, (±)-2-hydroxy-N-(2-hydroxy-5-oxo-7-oxabicyclo[4.1.0]hept-3-en-3-yl)quinoline-3-carboxamide], the “RPMI8226 tumor growth reduction” value in data set [5] (Example 2 15 mg/kg ip QD×21, xenograft mice, 15 mg/kg) was “same level of tumor growth reduction as PS-341; also recorded: reduced RPMI8226 tumor growth”. Besides, the “tolerability in xenograft model” value in data set [5] (mouse, in vivo) is on record as “better tolerated than PS-341”. The same compound showed an IC50 at p50 of 2.1 µM. For the same compound, in data set [6] (1.4 μM), the “cytotoxicity to MEFs” value is on record as “non-cytotoxic” and the “radio-sensitivity of PARP-1+/+ MEFs to IR” value is reported as “increased radio-sensitivities”. Moreover, in [6] (p65+/+ MEFs, 1.4 μM, IR alone 2.3 Gy), the “LD50 of IR + compound” value was 1.5 Gy. Moreover, the “radio-sensitization of p65−/− MEFs” value in [6] (p65−/− MEFs) is “no further effect”. Moreover, in data set [7] (0.2 μM, MDA-MB-231), the “enhancement of radiation effect” value was determined as 1.5 fold. Also, the “LD50 of IR + compound” value in [7] (0.2 μM, MDA-MB-231, IR alone 2.55 Gy) was determined as 1.66 Gy. Also, the “LD50, single agent cytotoxic effect” value in [7] (MDA-MB-231 cells) came out at 0.4 µM. Moreover, the “nuclear extract NF-κB DNA binding activities after IR” value in the data set with NF-κB [8] is “significantly decreased”. Further, the “NF-κB-dependent luciferase expression after IR” value in the data set on NF-κB [9] is reported as “reduced luciferase gene transcription significantly; also recorded: significantly reduced luciferase expression”. In addition, the “anti-inflammation effects vs vehicle treated group” value in data set [10] (Example 2 15 mg/kg s.c. qd 21-35, etanercept 50 ug/mouse ip qd 21-35, P<0.05) is “statistal significant anti-inflammation effects”. The “hind paw erythema and swelling (arthritis index score)” value in [10] (daily d21-d35) was “significantly reduced”. Besides, the “histological evaluation of joints” value in data set [10] (day 35) is “significant reduction of inflammation”. In data set [10] (mouse, in vivo), the myeloperoxidase activities entry is recorded as “concomitant reduction” and the “tolerability of efficacious doses in mice” value is “well tolerated”. Besides, the EC50 in the data set on NF-κB [4] amounted to 0.21 µM.
